molecular target: Human SGLT2 (hSGLT2) (Homo sapiens (Human), UniProt P31639); assay: Inhibitory effects on human SGLT2 activities: sodium-dependent 14C-AMG glucose transport (uptake) assay in CHO cells expressing hSGLT2; settings: read-out: hSGLT2 Inhibitory Activity IC50; CHO cells stably expressing hSGLT2; 14C-AMG uptake, 37° C., 2 h; single determinations for examples; in-house assay
Sequence (P31639 whole entry): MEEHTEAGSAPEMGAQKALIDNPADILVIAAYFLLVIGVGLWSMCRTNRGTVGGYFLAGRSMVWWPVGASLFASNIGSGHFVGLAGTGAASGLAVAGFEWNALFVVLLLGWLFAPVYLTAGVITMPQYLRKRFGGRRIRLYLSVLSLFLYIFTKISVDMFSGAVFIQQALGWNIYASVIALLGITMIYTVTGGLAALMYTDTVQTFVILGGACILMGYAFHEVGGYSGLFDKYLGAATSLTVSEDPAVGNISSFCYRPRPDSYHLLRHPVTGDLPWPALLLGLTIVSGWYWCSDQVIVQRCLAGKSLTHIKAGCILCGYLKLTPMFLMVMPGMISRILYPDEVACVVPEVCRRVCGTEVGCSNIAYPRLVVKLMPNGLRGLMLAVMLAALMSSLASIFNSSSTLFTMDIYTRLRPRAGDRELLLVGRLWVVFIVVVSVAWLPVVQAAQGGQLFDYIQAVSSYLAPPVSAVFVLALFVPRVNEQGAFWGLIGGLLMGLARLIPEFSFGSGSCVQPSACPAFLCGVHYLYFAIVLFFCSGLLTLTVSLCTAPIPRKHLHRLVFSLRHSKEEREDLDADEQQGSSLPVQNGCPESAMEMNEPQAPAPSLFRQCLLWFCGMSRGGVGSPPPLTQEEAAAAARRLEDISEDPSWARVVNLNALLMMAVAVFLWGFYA

IC50 | SMILES
111 nM | C#CCOc1ccc(Cc2cc([C@@H]3O[C@H](CO)[C@@H](O)[C@H](O)[C@H]3O)sc2Cl)cc1 [Example 8, (2R,3R,4S,5S,6R)-2-(5-chloro-4-(4-(prop-2-ynyloxy)benzyl)thiophen-2-yl)-6-(hydroxymethyl)-tetrahydro-2H-pyran-3,4,5-triol]
8.73 nM | CCOc1ccc(Cc2cc([C@@H]3O[C@H](CO)[C@@H](O)[C@H](O)[C@H]3O)sc2C)cc1 [Example 19, (2R,3R,4S,5S,6R)-2-(4-(4-ethoxybenzyl)-5-methylthiophen-2-yl)-6-(hydroxymethyl)-tetrahydro-2H-pyran-3,4,5-triol]
94 nM | CC#CCOc1ccc(Cc2cc([C@@H]3O[C@H](CO)[C@@H](O)[C@H](O)[C@H]3O)sc2Cl)cc1 [Example 15, (2R,3R,4S,5S,6R)-2-(4-(4-(but-2-ynyloxy)benzyl)-5-chlorothiophen-2-yl)-6-(hydroxymethyl)-tetrahydro-2H-pyran-3,4,5-triol]
162 nM | OC[C@H]1O[C@@H](c2cc(Cc3ccc(OC4CCOC4)cc3)c(Cl)s2)[C@H](O)[C@@H](O)[C@@H]1O (stereo partly drawn) [Example 16, (2R,3R,4S,5S,6R)-2-(5-chloro-4-(4-(tetrahydrofuran-3-yloxy)benzyl)thiophen-2-yl)-6-(hydroxymethyl)-tetrahydro-2H-pyran-3,4,5-triol]
57.2 nM | OC[C@H]1O[C@@H](c2cc(Cc3ccc(OC4CCCC4)cc3)c(Cl)s2)[C@H](O)[C@@H](O)[C@@H]1O [Example 11, (2R,3R,4S,5S,6R)-2-(5-chloro-4-(4-(cyclopentyloxy)benzyl)thiophen-2-yl)-6-(hydroxymethyl)-tetrahydro-2H-pyran-3,4,5-triol]
4.47 nM | CCc1ccc(Cc2cc([C@@H]3O[C@H](CO)[C@@H](O)[C@H](O)[C@H]3O)sc2Cl)cc1 [Example 17, (2R,3R,4S,5S,6R)-2-(5-chloro-4-(4-ethylbenzyl)thiophen-2-yl)-6-(hydroxymethyl)-tetrahydro-2H-pyran-3,4,5-triol]
115 nM | COCCOc1ccc(Cc2cc([C@@H]3O[C@H](CO)[C@@H](O)[C@H](O)[C@H]3O)sc2Cl)cc1 [Example 10, (2R,3R,4S,5S,6R)-2-(5-chloro-4-(4-(2-methoxyethoxy)benzyl)thiophen-2-yl)-6-(hydroxymethyl)-tetrahydro-2H-pyran-3,4,5-triol]
21.1 nM | Cc1sc([C@@H]2O[C@H](CO)[C@@H](O)[C@H](O)[C@H]2O)cc1Cc1ccc(-c2ccc(F)cc2)s1 [Example 21, (2R,3R,4S,5S,6R)-2-(4-((5-(4-fluorophenyl)thiophen-2-yl)methyl)-5-methylthiophen-2-yl)-6-(hydroxymethyl)-tetrahydro-2H-pyran-3,4,5-triol]
12.8 nM | CSc1ccc(Cc2cc([C@@H]3O[C@H](CO)[C@@H](O)[C@H](O)[C@H]3O)sc2Cl)cc1 [Example 12, (2R,3R,4S,5S,6R)-2-(5-chloro-4-(4-(methylthio)benzyl)thiophen-2-yl)-6-(hydroxymethyl)-tetrahydro-2H-pyran-3,4,5-triol]
59.8 nM | CCCc1ccc(Cc2sc([C@@H]3O[C@H](CO)[C@@H](O)[C@H](O)[C@H]3O)cc2C)cc1 [Example 24, (2R,3S,4S,5R,6R)-2-(hydroxymethyl)-6-(4-methyl-5-(4-propylbenzyl)thiophen-2-yl)tetrahydro-2H-pyran-3,4,5-triol]
91.3 nM | OC[C@H]1O[C@@H](c2cc(Cc3ccc(-c4ccc(F)cc4)s3)c(Cl)s2)[C@H](O)[C@@H](O)[C@@H]1O [Example 3, (2R,3R,4S,5S,6R)-2-(5-chloro-4-((5-(4-fluorophenyl)thiophen-2-yl)methyl)thiophen-2-yl)-6-(hydroxymethyl)-tetrahydro-2H-pyran-3,4,5-triol]
54.6 nM | C=CCOc1ccc(Cc2cc([C@@H]3O[C@H](CO)[C@@H](O)[C@H](O)[C@H]3O)sc2Cl)cc1 [Example 4, (2R,3R,4S,5S,6R)-2-(4-(4-(allyloxy)benzyl)-5-chlorothiophen-2-yl)-6-(hydroxymethyl)-tetrahydro-2H-pyran-3,4,5-triol]
10.3 nM | CCCc1ccc(Cc2cc([C@@H]3O[C@H](CO)[C@@H](O)[C@H](O)[C@H]3O)sc2Cl)cc1 [Example 18, (2R,3R,4S,5S,6R)-2-(5-chloro-4-(4-propylbenzyl)thiophen-2-yl)-6-(hydroxymethyl)-tetrahydro-2H-pyran-3,4,5-triol]
34.6 nM | CCOc1ccc(Cc2cc([C@@H]3O[C@H](CO)[C@@H](O)[C@H](O)[C@H]3O)sc2Cl)cc1 [Example 1, (2R,3R,4S,5S,6R)-2-(5-chloro-4-(4-ethoxybenzyl)thiophen-2-yl)-6-(hydroxymethyl)-tetrahydro-2H-pyran-3,4,5-triol]
86.5 nM | COc1ccc(Cc2cc([C@@H]3O[C@H](CO)[C@@H](O)[C@H](O)[C@H]3O)sc2Cl)cc1 [Example 2, (2R,3R,4S,5S,6R)-2-(5-chloro-4-(4-methoxybenzyl)thiophen-2-yl)-6-(hydroxymethyl)-tetrahydro-2H-pyran-3,4,5-triol]
> 10000 nM | Cc1cc([C@@H]2O[C@H](CO)[C@@H](O)[C@H](O)[C@H]2O)sc1Cc1ccc(F)cc1 [Example 29, (2R,3R,4S,5S,6R)-2-(5-(4-fluorobenzyl)-4-methylthiophen-2-yl)-6-(hydroxymethyl)tetrahydro-2H-pyran-3,4,5-triol]

IC50 | SMILES
71.4 nM | CCOc1ccc(Cc2sc([C@@H]3O[C@H](CO)[C@@H](O)[C@H](O)[C@H]3O)cc2C)cc1 [Example 31, (2R,3R,4S,5S,6R)-2-(5-(4-ethoxybenzyl)-4-methylthiophen-2-yl)-6-(hydroxymethyl)tetrahydro-2H-pyran-3,4,5-triol]
68.9 nM | COc1ccc(Cc2sc([C@@H]3O[C@H](CO)[C@@H](O)[C@H](O)[C@H]3O)cc2C)cc1 [Example 30, (2R,3S,4S,5R,6R)-2-(hydroxymethyl)-6-(5-(4-methoxybenzyl)-4-methylthiophen-2-yl)tetrahydro-2H-pyran-3,4,5-triol]
24.8 nM | CCc1ccc(Cc2sc([C@@H]3O[C@H](CO)[C@@H](O)[C@H](O)[C@H]3O)cc2C)cc1 [Example 25, (2R,3R,4S,5S,6R)-2-(5-(4-ethylbenzyl)-4-methylthiophen-2-yl)-6-(hydroxymethyl)tetrahydro-2H-pyran-3,4,5-triol]
27.5 nM | C=CCOc1ccc(Cc2cc([C@@H]3O[C@H](CO)[C@@H](O)[C@H](O)[C@H]3O)sc2C)cc1 [Example 22, (2R,3R,4S,5S,6R)-2-(4-(4-(allyloxy)benzyl)-5-methylthiophen-2-yl)-6-(hydroxymethyl)-tetrahydro-2H-pyran-3,4,5-triol]
69.6 nM | Cc1ccc(Cc2sc([C@@H]3O[C@H](CO)[C@@H](O)[C@H](O)[C@H]3O)cc2C)cc1 [Example 26, (2R,3S,4S,5R,6R)-2-(hydroxymethyl)-6-(4-methyl-5-(4-methylbenzyl)thiophen-2-yl)tetrahydro-2H-pyran-3,4,5-triol]
451 nM | Cc1cc([C@@H]2O[C@H](CO)[C@@H](O)[C@H](O)[C@H]2O)sc1Cc1ccc(Cl)cc1 [Example 28, (2R,3R,4S,5S,6R)-2-(5-(4-chlorobenzyl)-4-methylthiophen-2-yl)-6-(hydroxymethyl)tetrahydro-2H-pyran-3,4,5-triol]
50.2 nM | Cc1sc([C@@H]2O[C@H](CO)[C@@H](O)[C@H](O)[C@H]2O)cc1Cc1ccc(O)cc1 [Example 23, (2R,3R,4S,5S,6R)-2-(4-(4-hydroxybenzyl)-5-methylthiophen-2-yl)-6-(hydroxymethyl)-tetrahydro-2H-pyran-3,4,5-triol]
11.9 nM | CC(C)Oc1ccc(Cc2cc([C@@H]3O[C@H](CO)[C@@H](O)[C@H](O)[C@H]3O)sc2Cl)cc1 [Example 9, (2R,3R,4S,5S,6R)-2-(5-chloro-4-(4-isopropoxybenzyl)thiophen-2-yl)-6-(hydroxymethyl)-tetrahydro-2H-pyran-3,4,5-triol]
88.3 nM | Cc1cc([C@@H]2O[C@H](CO)[C@@H](O)[C@H](O)[C@H]2O)sc1Cc1ccc(C(C)(C)C)cc1 [Example 27, (2R,3R,4S,5S,6R)-2-(5-(4-tert-butylbenzyl)-4-methylthiophen-2-yl)-6-(hydroxymethyl)tetrahydro-2H-pyran-3,4,5-triol]
48.4 nM | CCSc1ccc(Cc2cc([C@@H]3O[C@H](CO)[C@@H](O)[C@H](O)[C@H]3O)sc2Cl)cc1 [Example 7, (2R,3R,4S,5S,6R)-2-(5-chloro-4-(4-(ethylthio)benzyl)thiophen-2-yl)-6-(hydroxymethyl)-tetrahydro-2H-pyran-3,4,5-triol]
70.7 nM | CCOCCOc1ccc(Cc2cc([C@@H]3O[C@H](CO)[C@@H](O)[C@H](O)[C@H]3O)sc2Cl)cc1 [Example 13, (2R,3R,4S,5S,6R)-2-(5-chloro-4-(4-(2-ethoxyethoxy)benzyl)thiophen-2-yl)-6-(hydroxymethyl)-tetrahydro-2H-pyran-3,4,5-triol]
65 nM | CCCOc1ccc(Cc2cc([C@@H]3O[C@H](CO)[C@@H](O)[C@H](O)[C@H]3O)sc2Cl)cc1 [Example 5, (2R,3R,4S,5S,6R)-2-(5-chloro-4-(4-propoxybenzyl)thiophen-2-yl)-6-(hydroxymethyl)-tetrahydro-2H-pyran-3,4,5-triol]
140 nM | OC[C@H]1O[C@@H](c2cc(Cc3ccc(O)cc3)c(Cl)s2)[C@H](O)[C@@H](O)[C@@H]1O [Example 6, (2R,3R,4S,5S,6R)-2-(5-chloro-4-(4-hydroxybenzyl)thiophen-2-yl)-6-(hydroxymethyl)-tetrahydro-2H-pyran-3,4,5-triol]
11.5 nM | COc1ccc(Cc2cc([C@@H]3O[C@H](CO)[C@@H](O)[C@H](O)[C@H]3O)sc2C)cc1 [Example 20, (2R,3S,4S,5R,6R)-2-(hydroxymethyl)-6-(4-(4-methoxybenzyl)-5-methylthiophen-2-yl)-tetrahydro-2H-pyran-3,4,5-triol]
60.2 nM | Cc1ccc(Cc2cc([C@@H]3O[C@H](CO)[C@@H](O)[C@H](O)[C@H]3O)sc2Cl)cc1 [Example 14, (2R,3R,4S,5S,6R)-2-(5-chloro-4-(4-methylbenzyl)thiophen-2-yl)-6-(hydroxymethyl)-tetrahydro-2H-pyran-3,4,5-triol]
